Measured values as given in paper PMC7064328 (Environmental Health Perspectives, 2020).

Tested on: Pregnant CD-1 mice
Assay: Clinical chemistry of dam serum and urine
Assay type: in vivo, mouse (CD-1)
Settings: for ALB / ALP / ALT / AST / BUN / Chol / Cre / Glu / HDL / LDL / SDH / TBA / TP / Trig: dam serum; for Ucrea: dam urine
Method: Dam livers, kidneys, and placentas were trimmed and embedded by the NIEHS Mouse Embryo Phenotyping Core. Tissues collected at necropsy were fixed in 4% PFA for 72 h and paraffin embedded, and 5-μm sections were prepared and stained with hematoxylin and eosin (H&E). Pathology was evaluated and a pathology review conducted by S.A.E. Diplomate American College of Veterinary Pathologists (DACVP). Pathology reviews were conducted as an informed approach analysis [e.g., nonblinded analysis; see Sills et al. ([2019])]. Select tissue slides were scanned using the AT2 Scanner (Aperio). Images were then captured for publication using the ImageScope software; version 12.3.0.5056 (Aperio). Serum and urine obtained from dams in Block 2 were analyzed using the AU480 clinical chemistry analyzer (Beckman Coulter Inc.). Reagents and calibration standards used to measure alkaline phosphatase (ALP), alanine aminotransferase (ALT), aspartate aminotransferase (AST), blood urea nitrogen (BUN), serum creatinine, urine creatinine, glucose (Glu), total protein (TP), triglyceride (Trig), high-density lipoprotein (HDL), cholesterol (Chol), and albumin (ALB) were purchased from Beckman Coulter Inc. Reagents for sorbitol dehydrogenase (SDH), total bile acid (TBA), and micro-TP were purchased from Sekisui Diagnostics. The reagent used to measure low-density lipoprotein (LDL) was purchased form Diazyme Laboratories.

`O=C(O)C(F)(F)C(F)(F)C(F)(F)C(F)(F)C(F)(F)C(F)(F)C(F)(F)F` [PFOA, Perfluorooctanoic acid] was tested, and the “Dam serum Trig lowered vs controls” value (E11.5, 1 mg/kg/d) was 37%, the “Dam serum Trig lowered vs controls” value (E11.5, 5 mg/kg/d) was 58% and the “Serum Glu lower relative to controls” value (E11.5, 5 mg/kg/d, p=0.06) was 20%. The “Dam serum Trig lower vs controls” value (E17.5, 5 mg/kg/d) was 66%, the “LDL lower vs controls” value (E17.5, 5 mg/kg/d) was 50% and the “ALT increase relative to controls” value (Table 2 (E11.5), 5 mg/kg/d, not statistically significant) was 172%. For the same molecule, the ALB (E11.5, 1 mg/kg/d) was 2.42±0.22 (5) g/dL, the ALP (E11.5, 1 mg/kg/d) was 54.6±4.4 (5) U/L and the ALT (E11.5, 1 mg/kg/d) was 28.8±11.5 (5) U/L. For the same molecule, the AST (E11.5, 1 mg/kg/d) was 144.6±167.6 (5) U/L, the BUN (E11.5, 1 mg/kg/d) was 15.0±2.7 (5) mg/dL and the Chol (E11.5, 1 mg/kg/d) was 68.8±18.0 (5) mg/dL. For the same molecule, the Cre (E11.5, 1 mg/kg/d) was 0.2±0.05 (5) mg/dL, the Glu (E11.5, 1 mg/kg/d) was 278.4±27.8 (5) mg/dL and the HDL (E11.5, 1 mg/kg/d) was 34.8±10.9 (5) mg/dL. The LDL (E11.5, 1 mg/kg/d) was 12.2±1.9 (5) mg/dL, the SDH (E11.5, 1 mg/kg/d) was 8.4±7.8 (5) U/L and the TBA (E11.5, 1 mg/kg/d) was 1.5±0.58 (4) μM/L. The TP (E11.5, 1 mg/kg/d) was 4.04±0.3 (5) g/dL, the Trig (E11.5, 1 mg/kg/d) was 130.4±16.2 (5) mg/dL and the ALB (E11.5, 5 mg/kg/d) was 2.36±0.21 (5) g/dL. The ALP (E11.5, 5 mg/kg/d) was 56.6±35.6 (5) U/L, the ALT (E11.5, 5 mg/kg/d) was 70.8±16.2 (5) U/L and the AST (E11.5, 5 mg/kg/d) was 92.6±20.3 (5) U/L. For the same molecule, the BUN (E11.5, 5 mg/kg/d) was 15.8±1.3 (5) mg/dL, the Chol (E11.5, 5 mg/kg/d) was 69.4±9.9 (5) mg/dL and the Cre (E11.5, 5 mg/kg/d) was 0.18±0.03 (5) mg/dL. For the same molecule, the Glu (E11.5, 5 mg/kg/d) was 220.4±22.1 (5) mg/dL, the HDL (E11.5, 5 mg/kg/d) was 42.6±4.0 (5) mg/dL and the LDL (E11.5, 5 mg/kg/d) was 10.6±1.5 (5) mg/dL. For the same molecule, the SDH (E11.5, 5 mg/kg/d) was 12.4±8.3 (5) U/L, the TBA (E11.5, 5 mg/kg/d) was 2.0±0.0 (5) μM/L and the TP (E11.5, 5 mg/kg/d) was 3.78±0.22 (5) g/dL. For the same molecule, the Trig (E11.5, 5 mg/kg/d) was 86.4±15.8 (5) mg/dL, the ALB (E17.5, 1 mg/kg/d) was 2.04±0.09 (5) g/dL and the ALP (E17.5, 1 mg/kg/d) was 50.2±4.2 (5) U/L. For the same molecule, the ALT (E17.5, 1 mg/kg/d) was 7.0±4.3 (5) U/L, the AST (E17.5, 1 mg/kg/d) was 73.0±14.0 (5) U/L and the BUN (E17.5, 1 mg/kg/d) was 16.4±1.7 (5) mg/dL. For the same molecule, the Chol (E17.5, 1 mg/kg/d) was 83.8±20.0 (5) mg/dL, the Cre (E17.5, 1 mg/kg/d) was 0.2±0.01 (5) mg/dL and the Glu (E17.5, 1 mg/kg/d) was 121.0±17.3 (5) mg/dL. For the same molecule, the HDL (E17.5, 1 mg/kg/d) was 37.2±6.2 (5) mg/dL, the LDL (E17.5, 1 mg/kg/d) was 24.0±10.7 (5) mg/dL and the SDH (E17.5, 1 mg/kg/d) was 3.4±6.1 (5) U/L. For the same molecule, the TBA (E17.5, 1 mg/kg/d) was 3.0±1.2 (5) μM/L, the TP (E17.5, 1 mg/kg/d) was 3.9±0.11 (5) g/dL and the Trig (E17.5, 1 mg/kg/d) was 364.0±272.9 (5) mg/dL. For the same molecule, the ALB (E17.5, 5 mg/kg/d) was 1.53±0.27 (6) g/dL, the ALP (E17.5, 5 mg/kg/d) was 74.8±23.8 (6) U/L and the ALT (E17.5, 5 mg/kg/d) was 16.8±7.7 (6) U/L. For the same molecule, the AST (E17.5, 5 mg/kg/d) was 172.2±63.1 (6) U/L, the BUN (E17.5, 5 mg/kg/d) was 18.7±5.3 (6) mg/dL and the Chol (E17.5, 5 mg/kg/d) was 68.5±16.4 (6) mg/dL. For the same molecule, the Cre (E17.5, 5 mg/kg/d) was 0.16±0.06 (6) mg/dL, the Glu (E17.5, 5 mg/kg/d) was 112.0±15.8 (6) mg/dL and the HDL (E17.5, 5 mg/kg/d) was 38.8±11.2 (6) mg/dL. For the same molecule, the LDL (E17.5, 5 mg/kg/d) was 11.0±3.0 (5) mg/dL, the SDH (E17.5, 5 mg/kg/d) was 24.3±11.2 (6) U/L and the TBA (E17.5, 5 mg/kg/d) was 8.0±7.9 (6) μM/L. For the same molecule, the TP (E17.5, 5 mg/kg/d) was 2.8±0.39 (6) g/dL, the Trig (E17.5, 5 mg/kg/d) was 159.0±65.5 (6) mg/dL and the Ucrea (E11.5, 1 mg/kg/d) was 92.0±13.1 (4) mg/dL. The Ucrea (E11.5, 5 mg/kg/d) was 50.1±33.8 (4) mg/dL, the Ucrea (E17.5, 1 mg/kg/d) was 24.7±23.1 (2) mg/dL and the Ucrea (E17.5, 5 mg/kg/d) was 11.5±5.9 (3) mg/dL.

With `N.O=C(O)C(F)(OC(F)(F)C(F)(F)C(F)(F)F)C(F)(F)F` (stereo not drawn) [GenX, ammonium 2,3,3,3-tetrafluoro-2-(heptafluoropropoxy)propanoate] the “Chol higher compared with controls” value (E11.5, 2 mg/kg/d) was 66%, the “Dam serum Trig lowered vs controls” value (E11.5, 2 mg/kg/d) was 43% and the “HDL higher compared with controls” value (E11.5, 2 mg/kg/d) was 56%. The “Dam serum Trig lowered vs controls” value (E11.5, 10 mg/kg/d) was 61%, the “Dam serum Trig lower vs controls” value (E17.5, 10 mg/kg/d) was 74% and the “LDL lower vs controls” value (E17.5, 10 mg/kg/d) was 31%. For the same molecule, the ALB (E11.5, 2 mg/kg/d) was 2.75±0.33 (4) g/dL, the ALP (E11.5, 2 mg/kg/d) was 58.4±9.0 (5) U/L and the ALT (E11.5, 2 mg/kg/d) was 24.2±13.7 (5) U/L. For the same molecule, the AST (E11.5, 2 mg/kg/d) was 69.0±22.0 (5) U/L, the BUN (E11.5, 2 mg/kg/d) was 18.3±4.6 (4) mg/dL and the Chol (E11.5, 2 mg/kg/d) was 93.4±27.8 (5) mg/dL. The Cre (E11.5, 2 mg/kg/d) was 0.2±0.04 (4) mg/dL, the Glu (E11.5, 2 mg/kg/d) was 249.3±25.8 (4) mg/dL and the HDL (E11.5, 2 mg/kg/d) was 50.2±15.7 (5) mg/dL. The LDL (E11.5, 2 mg/kg/d) was 15±4.8 (4) mg/dL, the SDH (E11.5, 2 mg/kg/d) was 7.0±6.5 (4) U/L and the TBA (E11.5, 2 mg/kg/d) was 1.4±0.55 (5) μM/L. For the same molecule, the TP (E11.5, 2 mg/kg/d) was 4.5±0.48 (4) g/dL, the Trig (E11.5, 2 mg/kg/d) was 117.6±33.9 (5) mg/dL and the ALB (E11.5, 10 mg/kg/d) was 2.8±0.17 (3) g/dL. For the same molecule, the ALP (E11.5, 10 mg/kg/d) was 83.0±25.8 (5) U/L, the ALT (E11.5, 10 mg/kg/d) was 78.2±62.0 (5) U/L and the AST (E11.5, 10 mg/kg/d) was 136.8±138.9 (4) U/L. The BUN (E11.5, 10 mg/kg/d) was 13.7±1.5 (3) mg/dL, the Chol (E11.5, 10 mg/kg/d) was 77.0±16.4 (4) mg/dL and the Cre (E11.5, 10 mg/kg/d) was 0.18±0.02 (3) mg/dL. For the same molecule, the Glu (E11.5, 10 mg/kg/d) was 226.7±28.9 (3) mg/dL, the HDL (E11.5, 10 mg/kg/d) was 43.3±6.1 (4) mg/dL and the LDL (E11.5, 10 mg/kg/d) was 12.5±1.9 (4) mg/dL. The SDH (E11.5, 10 mg/kg/d) was 8.0±3.65 (4) U/L, the TBA (E11.5, 10 mg/kg/d) was 35.3±67.8 (4) μM/L and the TP (E11.5, 10 mg/kg/d) was 4.37±0.29 (3) g/dL. For the same molecule, the Trig (E11.5, 10 mg/kg/d) was 80.3±14.4 (4) mg/dL, the ALB (E17.5, 2 mg/kg/d) was 2.32±0.26 (5) g/dL and the ALP (E17.5, 2 mg/kg/d) was 55.4±11.8 (5) U/L. For the same molecule, the ALT (E17.5, 2 mg/kg/d) was 4.4±3.9 (5) U/L, the AST (E17.5, 2 mg/kg/d) was 65.6±12.1 (5) U/L and the BUN (E17.5, 2 mg/kg/d) was 13.6±1.1 (5) mg/dL. For the same molecule, the Chol (E17.5, 2 mg/kg/d) was 86.6±17.1 (5) mg/dL, the Cre (E17.5, 2 mg/kg/d) was 0.17±0.03 (5) mg/dL and the Glu (E17.5, 2 mg/kg/d) was 123.2±13.1 (5) mg/dL. For the same molecule, the HDL (E17.5, 2 mg/kg/d) was 39.4±8.5 (5) mg/dL, the LDL (E17.5, 2 mg/kg/d) was 20.0±3.9 (5) mg/dL and the SDH (E17.5, 2 mg/kg/d) was 1.2±2.2 (5) U/L. The TBA (E17.5, 2 mg/kg/d) was 4.8±3.0 (5) μM/L, the TP (E17.5, 2 mg/kg/d) was 4.1±0.36 (5) g/dL and the Trig (E17.5, 2 mg/kg/d) was 257.0±120.3 (5) mg/dL. The ALB (E17.5, 10 mg/kg/d) was 2.26±0.3 (5) g/dL, the ALP (E17.5, 10 mg/kg/d) was 88.8±13.0 (5) U/L and the ALT (E17.5, 10 mg/kg/d) was 9.6±2.1 (5) U/L. For the same molecule, the AST (E17.5, 10 mg/kg/d) was 113.2±36.6 (5) U/L, the BUN (E17.5, 10 mg/kg/d) was 15.2±1.8 (5) mg/dL and the Chol (E17.5, 10 mg/kg/d) was 97.4±8.4 (5) mg/dL. For the same molecule, the Cre (E17.5, 10 mg/kg/d) was 0.15±0.06 (5) mg/dL, the Glu (E17.5, 10 mg/kg/d) was 111.6±15.5 (5) mg/dL and the HDL (E17.5, 10 mg/kg/d) was 50.0±8.9 (5) mg/dL. For the same molecule, the LDL (E17.5, 10 mg/kg/d) was 15.2±2.9 (5) mg/dL, the SDH (E17.5, 10 mg/kg/d) was 11.4±6.8 (5) U/L and the TBA (E17.5, 10 mg/kg/d) was 6.2±4.2 (5) μM/L. For the same molecule, the TP (E17.5, 10 mg/kg/d) was 3.9±0.52 (5) g/dL, the Trig (E17.5, 10 mg/kg/d) was 120.6±31.7 (5) mg/dL and the Ucrea (E11.5, 2 mg/kg/d) was 53.2±14.0 (3) mg/dL. For the same molecule, the Ucrea (E11.5, 10 mg/kg/d) was 82.9±33.2 (5) mg/dL, the Ucrea (E17.5, 2 mg/kg/d) was 18.6±5.1 (4) mg/dL and the Ucrea (E17.5, 10 mg/kg/d) was 20.2±15.7 (4) mg/dL.
